Measurements reported in patent US20210290644A1, “COMPOUNDS AND METHODS FOR TREATING FUNGAL INFECTIONS” (Amplyx Pharmaceuticals, Inc., priority 2018, published 2021).
Where “and” joins values, the source holds several entries; their conditions need not be identical. Identical values can stand only once.

Experiment: Study #1 Phase 1: plasma and urine pharmacokinetics of Compound 1 and Compound 1A after IV infusion of Compound 1 (SAD, MAD, loading regimen)
Conditions: both, human, plasma; for Vd: Vz
[1] = 100 mg, Cohort 3: Compound 1 100 mg/3 hr IV, single dose, geometric mean [geometric %CV]
[2] = 200 mg, Cohort 4: Compound 1 200 mg/3 hr IV, single dose, geometric mean [geometric %CV]
[3] = 275 mg, Cohort 5: Compound 1 275 mg/3 hr IV, single dose, geometric mean [geometric %CV]
[4] = 300 mg, Cohort 9: Compound 1 300 mg/3 hr IV QD × 14 days, Day 14, geometric mean
[5] = 600 mg, Cohort 10: Compound 1 600 mg/3 hr IV QD × 14 days, Day 14, geometric mean
[6] = 600 mg, Cohort 12 loading regimen: Compound 1 600 mg/1 hr IV QD, Day 7, geometric mean
[7] = 1000 mg, Cohort 11: Compound 1 1,000 mg/0.5 hr IV, single dose, geometric mean
[8] = 1000 mg, Cohort 11: Compound 1 1,000 mg/1 hr IV, single dose, geometric mean
[9] = 1000 mg, Cohort 11: Compound 1 1,000 mg/2 hr IV, single dose, geometric mean
[10] = 1000 mg, Cohort 11: Compound 1 1,000 mg/3 hr IV, single dose, geometric mean

From the text: This was a Phase 1, first-in-human, randomized, double-blind, placebo-controlled single ascending dose (SAD) and multiple ascending dose (MAD) escalation study of 120 healthy male and female subjects. The objectives of the study were to evaluate the safety, tolerability, and pharmacokinetics of single and multiple doses of Compound 1 administered by intravenous (IV) infusion.
In the single ascending dose (SAD) phase, Cohorts 1 to 6 and 11A to 11D received single doses. For Cohorts 11A to 11D, the infusion time varied from 0.5 to 3 hours to evaluate the relationship between C., and tolerability. In the multiple ascending dose (MAD) phase, Cohorts 7 to 10 received multiple doses over 14 days, and Cohort 12 examined the feasibility of a loading dose regimen.
Blood samples for the determination of Compound 1 and Compound 1A plasma concentrations were collected before and at appropriate times during all single- and multiple-dose administrations of Compound 1. For SAD Cohorts 1 to 6, urine samples for the determination of Compound 1A were collected through 48 hrs after dosing.
Eighty (80) subjects were enrolled into SAD Cohorts 1 to 6 and 11A to 11D. Within each cohort, six subjects were randomized to Compound 1 and two subjects to placebo. All 60 subjects randomized to Compound 1 completed dosing. Fifty-nine (59) subjects completed the study.
Forty (40) subjects were enrolled into MAD Cohorts 7 to 10 and Loading Dose Cohort 12. Within each cohort, six subjects were randomized to Compound 1 and two subjects to placebo.
The PK analysis population therefore consisted of 60 subjects in the SAD phase and 28 subjects in the MAD phase.

## Nc1ncccc1-c1cc(Cc2ccc(COc3ccccn3)cc2)no1 [Compound 1A]
50 mg, Cohort 7: Compound 1 50 mg/3 hr IV QD × 14 days, Day 14, geometric mean
  Vd: 2.44 L/kg
100 mg, AUC(0-24), Cohort 3: Compound 1 100 mg/3 hr IV, single dose, geometric mean [geometric %CV]
  AUC(0-t): 14.4 µg·h/mL
100 mg, AUC(0-t), Cohort 3: Compound 1 100 mg/3 hr IV, single dose, geometric mean [geometric %CV]
  AUC(0-t): 47.4 µg·h/mL
[1]
  AUC(0-inf): 50.4 µg·h/mL
  Cmax: 1440 ng/mL
  Vd: 115 L and 1.88 L/kg
100 mg, Cohort 3: Compound 1 100 mg/3 hr IV, single dose, median
  Tmax: 3 h
150 mg, AUC(0-24), Cohort 8: Compound 1 150 mg/3 hr IV QD × 14 days, Day 1, geometric mean
  AUC(0-t): 19.4 µg·h/mL
150 mg, AUC(0-24), Cohort 8: Compound 1 150 mg/3 hr IV QD × 14 days, Day 7, geometric mean
  AUC(0-t): 48.7 µg·h/mL
150 mg, Cohort 8: Compound 1 150 mg/3 hr IV QD × 14 days, Day 1, geometric mean
  Cmax: 1860 ng/mL
150 mg, Cohort 8: Compound 1 150 mg/3 hr IV QD × 14 days, Day 7, geometric mean
  Cmax: 3090 ng/mL
150 mg, Cohort 8: Compound 1 150 mg/3 hr IV QD × 14 days, Day 1, median
  Tmax: 3 h
150 mg, Cohort 8: Compound 1 150 mg/3 hr IV QD × 14 days, Day 7, median
  Tmax: 3 h
150 mg, Cohort 8: Compound 1 150 mg/3 hr IV QD × 14 days, Day 14, median
  Tmax: 3.02 h
200 mg, AUC(0-24), Cohort 4: Compound 1 200 mg/3 hr IV, single dose, geometric mean [geometric %CV]
  AUC(0-t): 20.7 µg·h/mL
[2]
  AUC(0-inf): 83.2 µg·h/mL
  Cmax: 2410 ng/mL
  Vd: 178 L and 2.46 L/kg
200 mg, Cohort 4: Compound 1 200 mg/3 hr IV, single dose, median
  Tmax: 3 h
275 mg, AUC(0-24), Cohort 5: Compound 1 275 mg/3 hr IV, single dose, geometric mean [geometric %CV]
  AUC(0-t): 37.1 µg·h/mL
275 mg, AUC(0-t), Cohort 5: Compound 1 275 mg/3 hr IV, single dose, geometric mean [geometric %CV]
  AUC(0-t): 114 µg·h/mL
[3]
  AUC(0-inf): 120 µg·h/mL
  Cmax: 3960 ng/mL
  Vd: 123 L and 1.75 L/kg
275 mg, Cohort 5: Compound 1 275 mg/3 hr IV, single dose, median
  Tmax: 3 h
300 mg, AUC(0-24), Cohort 9: Compound 1 300 mg/3 hr IV QD × 14 days, Day 1, geometric mean
  AUC(0-t): 37.1 µg·h/mL
300 mg, AUC(0-24), Cohort 9: Compound 1 300 mg/3 hr IV QD × 14 days, Day 7, geometric mean
  AUC(0-t): 104 µg·h/mL
300 mg, AUC(0-24), Cohort 9: Compound 1 300 mg/3 hr IV QD × 14 days, Day 14, geometric mean
  AUC(0-t): 118 µg·h/mL
300 mg, Cohort 9: Compound 1 300 mg/3 hr IV QD × 14 days, Day 1, geometric mean
  Cmax: 3690 ng/mL
300 mg, Cohort 9: Compound 1 300 mg/3 hr IV QD × 14 days, Day 7, geometric mean
  Cmax: 6650 ng/mL
[4]
  Cmax: 7520 ng/mL
  Vd: 148 L and 2.22 L/kg
300 mg, Cohort 9: Compound 1 300 mg/3 hr IV QD × 14 days, Day 1, median
  Tmax: 3 h
300 mg, Cohort 9: Compound 1 300 mg/3 hr IV QD × 14 days, Day 7, median
  Tmax: 3 h
300 mg, Cohort 9: Compound 1 300 mg/3 hr IV QD × 14 days, Day 14, median
  Tmax: 3.02 h
350 mg, Cohort 6: Compound 1 350 mg/3 hr IV, single dose, median
  Tmax: 3 h
600 mg, AUC(0-24), Cohort 10: Compound 1 600 mg/3 hr IV QD × 14 days, Day 1, geometric mean
  AUC(0-t): 72.7 µg·h/mL
600 mg, AUC(0-24), Cohort 10: Compound 1 600 mg/3 hr IV QD × 14 days, Day 7, geometric mean
  AUC(0-t): 217 µg·h/mL
600 mg, AUC(0-24), Cohort 10: Compound 1 600 mg/3 hr IV QD × 14 days, Day 14, geometric mean
  AUC(0-t): 245 µg·h/mL
600 mg, AUC(0-24), Cohort 12 loading regimen: Compound 1 600 mg/1 hr IV QD, Day 4, geometric mean
  AUC(0-t): 219 µg·h/mL
600 mg, AUC(0-24), Cohort 12 loading regimen: Compound 1 600 mg/1 hr IV QD, Day 7, geometric mean
  AUC(0-t): 201 µg·h/mL
600 mg, Cohort 10: Compound 1 600 mg/3 hr IV QD × 14 days, Day 1, geometric mean
  Cmax: 7570 ng/mL
600 mg, Cohort 10: Compound 1 600 mg/3 hr IV QD × 14 days, Day 7, geometric mean
  Cmax: 14500 ng/mL
[5]
  Cmax: 15400 ng/mL
  Vd: 175 L and 2.75 L/kg
600 mg, Cohort 12 loading regimen: Compound 1 600 mg/1 hr IV QD, Day 4, geometric mean
  Cmax: 17900 ng/mL
[6]
  Cmax: 17700 ng/mL
  Vd: 162 L and 2.27 L/kg
600 mg, Cohort 10: Compound 1 600 mg/3 hr IV QD × 14 days, Day 1, median
  Tmax: 3 h
600 mg, Cohort 10: Compound 1 600 mg/3 hr IV QD × 14 days, Day 7, median
  Tmax: 3.03 h
600 mg, Cohort 10: Compound 1 600 mg/3 hr IV QD × 14 days, Day 14, median
  Tmax: 3 h
600 mg, Cohort 12 loading regimen: Compound 1 600 mg/1 hr IV QD, Day 4, median
  Tmax: 1 h
600 mg, Cohort 12 loading regimen: Compound 1 600 mg/1 hr IV QD, Day 7, median
  Tmax: 1 h
1000 mg, AUC(0-24), Cohort 11: Compound 1 1,000 mg/0.5 hr IV, single dose, geometric mean
  AUC(0-t): 131 µg·h/mL
1000 mg, AUC(0-24), Cohort 11: Compound 1 1,000 mg/1 hr IV, single dose, geometric mean
  AUC(0-t): 134 µg·h/mL
1000 mg, AUC(0-24), Cohort 11: Compound 1 1,000 mg/2 hr IV, single dose, geometric mean
  AUC(0-t): 130 µg·h/mL
1000 mg, AUC(0-24), Cohort 11: Compound 1 1,000 mg/3 hr IV, single dose, geometric mean
  AUC(0-t): 117 µg·h/mL
1000 mg, AUC(0-24), Cohort 12 loading regimen: Compound 1 1,000 mg/2 hr IV at 0 & 9 hr, Day 1, geometric mean
  AUC(0-t): 211 µg·h/mL
1000 mg, AUC(0-t), Cohort 11: Compound 1 1,000 mg/1 hr IV, single dose, geometric mean
  AUC(0-t): 481 µg·h/mL
1000 mg, AUC(0-t), Cohort 11: Compound 1 1,000 mg/2 hr IV, single dose, geometric mean
  AUC(0-t): 476 µg·h/mL
[7]
  AUC(0-inf): 434 µg·h/mL
  Cmax: 24900 ng/mL
  Vd: 141 L and 19.7 L/kg
[8]
  AUC(0-inf): 536 µg·h/mL
  Cmax: 20100 ng/mL
  Vd: 139 L and 2.11 L/kg
[9]
  AUC(0-inf): 541 µg·h/mL
  Cmax: 15600 ng/mL
  Vd: 153 L and 2.43 L/kg
[10]
  AUC(0-inf): 400 µg·h/mL
  Cmax: 11900 ng/mL
  Vd: 153 L and 2.02 L/kg
1000 mg, Cohort 12 loading regimen: Compound 1 1,000 mg/2 hr IV at 0 & 9 hr, Day 1, geometric mean
  Cmax: 15700 ng/mL
1000 mg, Cohort 11: Compound 1 1,000 mg/0.5 hr IV, single dose, median
  Tmax: 0.52 h
1000 mg, Cohort 11: Compound 1 1,000 mg/1 hr IV, single dose, median
  Tmax: 1.02 h
1000 mg, Cohort 11: Compound 1 1,000 mg/2 hr IV, single dose, median
  Tmax: 2.02 h
1000 mg, Cohort 11: Compound 1 1,000 mg/3 hr IV, single dose, median
  Tmax: 3.02 h
1000 mg, Cohort 12 loading regimen: Compound 1 1,000 mg/2 hr IV at 0 & 9 hr, Day 1, median
  Tmax: 11 h
